The numbers were not newly measured in US20110293690A1, “Biodegradable Polymer Encapsulated Microsphere Particulate Film and Method of Making Thereof” (Tyco Healthcare Group LP, priority 2010, published 2011), which cites them from elsewhere.

Structures are written as SMILES. Counter-ions that a name gives are not always drawn. Like-named read-outs stand apart in the source and are kept apart here.

The conditions of data set [1]: in water, stated in words.

On to `CCCCN1CCCCC1C(=O)Nc1c(C)cccc1C` (stereo not drawn) [Bupivacaine, bupivacaine], for which the pKa entry is given as “about 8.1”. Besides, in data set [1] (listed as free base form of bupivacaine), the aqueous solubility entry is on record as “lower aqueous solubility”.
As for `CCCCN1CCCCC1C(=O)Nc1c(C)cccc1C` (stereo not drawn) [salt form of bupivacaine, bupivacaine hydrochloride], the aqueous solubility result in data set [1] (hydrochloride) is recorded as “soluble in water”.
